# Source: patent US9469613B2, “(N-(cyanomethyl)-4-(2-(4-morpholinophenylamino)pyrimidin-4-yl)benzamide” (Gilead Sciences, Inc., priority 2014, dated 2016)
# Counter-ions that a name gives are not always drawn.
# Columns and labels:
# [1] = Phase 1 single dose PK study, Form II tablets vs Form I capsule, healthy subjects; conditions: human, in vivo
# Description: Tablets comprising CYT-0387 dihydrochloride monohydrate Form II (doses equivalent to 100, 150, 200, and 300 mg of the free base) and capsules comprising CYT-0387 dihydrochloride anhydrous Form I (dose equivalent to 300 mg of the free base) were evaluated in a Phase 1, single dose study in healthy subjects.
# Intensive PK and PD sampling occurred from 0.5 hour up to 36 hours post dose. Safety was monitored throughout the study. A parametric analysis of variance (ANOVA) using a mixed-effects model was used to fit to the natural logarithmic transformation of PK parameters (AUC and Cmax). The 90% confidence intervals were constructed for the ratio of geometric means of CYT-0387 dihydrochloride monohydrate Form II tablets at 100, 150, 200 and 300 mg vs CYT-0387 dihydrochloride anhydrous Form I capsule at 300 mg, using equivalence bounds of 70% to 143% for AUC and Cmax. The pharmacokinetic data is represented in Table 5.
# [2] = Solid form hygroscopicity and stability; assay type: physicochemical; conditions: conditions suitable for manufacturing and/or storage
# Description: Dynamic Vapor Sorption: The hygroscopicity of N-(cyanomethyl)-4-(2-(4-morpholinophenylamino)pyrimidin-4-yl)benzamide dihydrochloride monohydrate Form II was evaluated at room temperature using a dynamic vapor sorption (DVS) instrument (TGA Q5000 TA Instruments, New Castle, Del.). Water adsorption and desorption were studied as a function of relative humidity (RH) over the range of 0 to 90% at room temperature. The humidity in the chamber was increased from the initial level 50% RH) to 60% RH and held until the solid and atmosphere reached equilibration. The equilibrium test was continued until passed or expired after 10 hours. At this point, RH was raised 10% higher and the process was repeated until 90% RH was reached and equilibrated. During this period, the water sorption was monitored. For desorption, the relative humidity was decreased in a similar manner to measure a full sorption/desorption cycle. All experiments were operated in dm/dt mode (mass variation over time) to determine the equilibration endpoint. Approximately 4 mg of solid CYT-0387 was used. Data analysis was conducted using Universal Analysis 2000 Version 4.7A (TA Instruments, New Castle, Del., USA).
# [3] = Stability of 100 mg tablet formulation with different propyl gallate levels; assay type: physicochemical; conditions: for Total Degradation: 100 mg tablet, 40° C./75% RH
# Description: Next, the stability of 100 mg tablet formulation comprising CYT-0387 Form II was examined in the presence of 0%, 0.2%, 0.5%, or 1.0% propyl gallate at 25° C./60% RH (relative humidity) or 40° C./75% RH for up to 6 months. The degradation profiles were determined at month 0, 1, 3, and 6.
# [4] = biological target: T1, ALK6 (BMPR1B) (Homo sapiens (Human), UniProt O00238); experiment: In vitro enzyme inhibition assay (LanthaScreen); assay type: biochemical; conditions: n = 3
# T1 sequence (O00238 14-502): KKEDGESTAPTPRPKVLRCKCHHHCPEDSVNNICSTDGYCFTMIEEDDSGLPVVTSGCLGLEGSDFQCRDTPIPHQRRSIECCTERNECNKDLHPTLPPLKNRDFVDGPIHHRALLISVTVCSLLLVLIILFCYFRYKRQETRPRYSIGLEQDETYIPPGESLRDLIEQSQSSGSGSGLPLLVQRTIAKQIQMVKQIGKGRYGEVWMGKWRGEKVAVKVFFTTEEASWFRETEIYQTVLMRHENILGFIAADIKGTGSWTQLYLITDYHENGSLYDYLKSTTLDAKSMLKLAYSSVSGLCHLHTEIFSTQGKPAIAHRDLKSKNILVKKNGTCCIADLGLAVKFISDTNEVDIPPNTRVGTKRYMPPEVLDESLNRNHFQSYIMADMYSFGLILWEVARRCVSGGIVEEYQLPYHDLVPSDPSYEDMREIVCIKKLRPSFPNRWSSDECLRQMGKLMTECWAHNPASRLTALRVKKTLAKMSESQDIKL
# Description: (§1) In addition, biochemical binding assays (DiscoveRx) and in vitro enzyme inhibition assays (LanthaScreen, Life Technologies) were conducted to determine the binding affinity and inhibition activities of CYT-0387 to Type-I BMPR-kinases (ALK2, ALK3, and ALK6) were conducted. Transforming growth factor beta receptor 1 (TGFBR1, ALK5) was used as a control to determine the selectivity to Type-I BMPR-kinases.
# [5] = biological target: T2, ALK2 (Acvr1) (Homo sapiens (Human), UniProt Q04771); experiment: In vitro enzyme inhibition assay (LanthaScreen); assay type: biochemical; conditions: n = 3
# T2 sequence (Q04771 21-509): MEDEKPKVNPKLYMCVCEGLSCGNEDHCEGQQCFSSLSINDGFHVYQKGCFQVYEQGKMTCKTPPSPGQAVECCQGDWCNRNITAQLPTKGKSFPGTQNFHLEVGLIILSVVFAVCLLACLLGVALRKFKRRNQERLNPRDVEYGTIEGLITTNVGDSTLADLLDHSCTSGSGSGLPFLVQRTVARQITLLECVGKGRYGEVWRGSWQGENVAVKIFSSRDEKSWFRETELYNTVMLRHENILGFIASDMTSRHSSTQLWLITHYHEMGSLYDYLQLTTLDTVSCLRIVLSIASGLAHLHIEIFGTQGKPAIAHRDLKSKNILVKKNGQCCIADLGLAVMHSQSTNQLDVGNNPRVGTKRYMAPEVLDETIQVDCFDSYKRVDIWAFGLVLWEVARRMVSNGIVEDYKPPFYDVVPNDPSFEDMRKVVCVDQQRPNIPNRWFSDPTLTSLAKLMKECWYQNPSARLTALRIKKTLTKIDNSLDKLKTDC
# Description: as §1
# [6] = biological target: T3, ALK3 (BMPR1a) (Homo sapiens (Human), UniProt P36894); experiment: In vitro enzyme inhibition assay (LanthaScreen); assay type: biochemical; conditions: n = 3
# T3 sequence (P36894 24-532): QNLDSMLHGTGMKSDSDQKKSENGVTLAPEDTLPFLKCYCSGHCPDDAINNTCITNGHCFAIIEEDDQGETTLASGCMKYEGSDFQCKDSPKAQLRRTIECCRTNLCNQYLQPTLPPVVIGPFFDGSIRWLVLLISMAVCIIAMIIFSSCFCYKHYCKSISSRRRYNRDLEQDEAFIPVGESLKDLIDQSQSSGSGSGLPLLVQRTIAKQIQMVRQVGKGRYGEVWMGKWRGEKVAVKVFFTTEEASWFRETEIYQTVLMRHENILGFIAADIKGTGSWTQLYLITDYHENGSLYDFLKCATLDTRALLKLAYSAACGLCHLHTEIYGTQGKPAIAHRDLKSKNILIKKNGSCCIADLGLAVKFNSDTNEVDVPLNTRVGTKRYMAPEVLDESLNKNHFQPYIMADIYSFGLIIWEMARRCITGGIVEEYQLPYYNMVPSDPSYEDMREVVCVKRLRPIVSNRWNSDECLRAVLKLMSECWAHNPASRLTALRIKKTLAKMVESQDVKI
# Description: as §1
# [7] = biological target: T4, TGFBR1 (Homo sapiens (Human), UniProt P36897); experiment: Biochemical binding assay (DiscoveRx)
# T4 sequence (P36897 34-503): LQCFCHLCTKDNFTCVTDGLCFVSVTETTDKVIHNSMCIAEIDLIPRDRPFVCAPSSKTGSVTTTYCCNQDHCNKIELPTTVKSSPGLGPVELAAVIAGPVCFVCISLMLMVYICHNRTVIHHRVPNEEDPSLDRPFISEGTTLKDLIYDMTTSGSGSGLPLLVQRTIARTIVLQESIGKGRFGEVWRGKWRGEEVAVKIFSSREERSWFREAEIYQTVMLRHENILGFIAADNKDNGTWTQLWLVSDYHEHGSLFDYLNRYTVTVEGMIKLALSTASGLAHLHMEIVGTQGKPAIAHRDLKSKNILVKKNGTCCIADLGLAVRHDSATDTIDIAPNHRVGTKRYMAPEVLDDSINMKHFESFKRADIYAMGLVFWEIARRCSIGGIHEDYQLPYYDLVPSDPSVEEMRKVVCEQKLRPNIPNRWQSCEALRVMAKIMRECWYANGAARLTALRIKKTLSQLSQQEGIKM
# [8] = biological target: T4, TGFBR1; experiment: In vitro enzyme inhibition assay (LanthaScreen); assay type: biochemical; conditions: TGFBR1, n = 3
# [9] = Mass balance/recovery, metabolite profile, pharmacokinetics and safety of radiolabeled CYT-0387; assay type: in vivo, human
# Description: CYT-0387 is a selective small molecule inhibitor of Janus kinase 1 and 2 (JAK1/JAK2) currently under investigation to treat myelofibrosis. This study evaluated the mass balance/recovery, metabolite profile, pharmacokinetics, and safety of radiolabeled CYT-0387 in humans.
# Six healthy individuals (subjects) received a single oral dose of 200 mg CYT-0387 containing ˜100 μCi of [^14C]-CYT-0387. Blood samples were collected up to 21 days or until plasma radioactivity in 2 consecutive samples was below detection limit or urine and feces sampling was discontinued. Urine/feces samples were collected up to 21 days or until ≧90% administered dose was recovered in feces and urine and radioactivity in 2 consecutive sampling intervals were ≦1% administered dose. Plasma concentrations of CYT-0387 and metabolites were measured using LC-MS/MS and total radioactivity assessed by liquid scintillation counting. Metabolite profiling was performed in select urine, feces, and plasma samples. Safety assessments were performed throughout the study.
# [10] = biological target: T1, ALK6 (BMPR1B); experiment: Biochemical binding assay (DiscoveRx)
# Description: as §1
# [11] = biological target: T2, ALK2 (Acvr1); experiment: Biochemical binding assay (DiscoveRx)
# Description: as §1
# [12] = biological target: T3, ALK3 (BMPR1a); experiment: Biochemical binding assay (DiscoveRx)
# Description: as §1
# [13] = single oral dose 200 mg, healthy subjects
compound,measurement,setting,value
"N#CCNC(=O)c1ccc(-c2ccnc(Nc3ccc(N4CCOCC4)cc3)n2)cc1 [CYT-0387 Form II, N-(cyanomethyl)-4-(2-(4-morpholinophenylamino)pyrimidin-4-yl)benzamide dihydrochloride monohydrate Form II]",bioavailability compared to CYT-0387 dihydrochloride anhydrous Form I and CYT-0387 free base,[1],increased bioavailability
same,thermodynamic stability of the dihydrochloride salt form,[2],thermodynamically stable form
same,Total Degradation,"[3]; propyl gallate 0%, month 0",0.10%
same,Total Degradation,"[3]; propyl gallate 0%, month 1",0.68%
same,Total Degradation,"[3]; propyl gallate 0%, month 3",1.01%
same,Total Degradation,"[3]; propyl gallate 0%, month 6",1.28%
same,Total Degradation,"[3]; propyl gallate 0.2%, month 0",0.10%
same,Total Degradation,"[3]; propyl gallate 0.2%, month 1",0.34%
same,Total Degradation,"[3]; propyl gallate 0.2%, month 3",0.67%
same,Total Degradation,"[3]; propyl gallate 0.2%, month 6",0.80%
same,Total Degradation,"[3]; propyl gallate 0.5%, month 0",0.11%
same,Total Degradation,"[3]; propyl gallate 0.5%, month 1",0.39%
same,Total Degradation,"[3]; propyl gallate 0.5%, month 3",0.67%
same,Total Degradation,"[3]; propyl gallate 0.5%, month 6",0.95%
same,Total Degradation,"[3]; propyl gallate 1.0%, month 0",0.14%
same,Total Degradation,"[3]; propyl gallate 1.0%, month 1",0.44%
same,Total Degradation,"[3]; propyl gallate 1.0%, month 3",0.87%
same,Total Degradation,"[3]; propyl gallate 1.0%, month 6",1.34%
same,degradation in 100 mg tablet,"[3]; 25° C./60% RH, propyl gallate at 0.2%, 0.5%, and 1.0% (data not shown)",reduced
"N#CCNC(=O)c1ccc(-c2ccnc(Nc3ccc(N4CCOCC4)cc3)n2)cc1 [CYT-0387, N-(cyanomethyl)-4-(2-(4-morpholinophenylamino)pyrimidin-4-yl)benzamide]",IC50,[4],107 nM
same,IC50,[5],8 nM
same,IC50,[6],405 nM
same,Kd,[7],670 nM
same,IC50,[8],205 nM
same,excreted in feces,[9]; feces,12.6 % of the dose
same,recovery of radioactivity in feces,[9]; feces,69.3%
same,overall recovery of radioactivity,[9]; feces and urine,96.7%
same,share of circulating radioactivity,[9]; plasma,17.3%
same,time of maximum concentration of drug-derived radioactivity in plasma,"[9]; postdose, single oral 200 mg [14C]-CYT-0387",2.5 h
same,most frequently reported AEs,[9]; [13],"dizziness, headache, and nausea"
same,serious or severe adverse events,[9]; [13],"No Grade 3 or 4 AEs, SAEs, or AEs leading to study discontinuation"
same,tolerability,[9]; [13],well tolerated
same,recovery of radioactivity in urine,[9]; urine,27.5%
same,Kd,[10],19 nM
same,Kd,[11],25 nM
same,Kd,[12],1000 nM
